Values of other authors, collected in PMC5344293, “A phase 1 dose-escalation and expansion study of binimetinib (MEK162), a potent and selective oral MEK1/2 inhibitor” (British Journal of Cancer, 2017).
Like-named read-outs stand apart in the source and are kept apart here.

Legend:
advanced solid tumours = system: advanced solid tumours; design: method as in Infante et al, 2012; details: ref Infante et al, 2012, cited from earlier work
non-melanoma tumours [1] = system: non-melanoma tumours; design: method as in Adjei et al, 2008; details: ref Adjei et al, 2008; cited from earlier work
[2] = system: metastatic biliary cancer; design: method as in Bekaii-Saab et al, 2011; details: ref Bekaii-Saab et al, 2011; cited from earlier work
non-melanoma tumours [3] = system: non-melanoma tumours; design: method as in Rosen et al, 2011; details: ref Rosen et al, 2011; cited from earlier work
non-melanoma tumours [4] = system: non-melanoma tumours; design: method as in Delord et al, 2010; details: ref Delord et al, 2010; cited from earlier work

For `CC(=O)Nc1cccc(-n2c(=O)n(C3CC3)c(=O)c3c(Nc4ccc(I)cc4F)n(C)c(=O)c(C)c32)c1` [trametinib], the “Non-melanoma patients with objective responses” value (advanced solid tumours; NSCLC and pancreas cancer (2 patients each)) is given as 4 patients and the “Patients with objective responses” value (advanced solid tumours; all tumour types) is given as 21 patients.

In the case of `Cn1cnc2c(F)c(Nc3ccc(Br)cc3Cl)c(C(=O)NOCCO)cc21` [selumetinib], the “Objective responses to single-agent treatment in non-melanoma patients” value (from here on “Objective responses … in non-melanoma patients”) (non-melanoma tumours [1]) is given as “no objective responses” and the “Objective response, patients” value [2] is given as 12%.

In the case of `O=C(c1ccc(F)c(F)c1Nc1ccc(I)cc1F)N1CC(O)([C@@H]2CCCCN2)C1` [cobimetinib], the “Objective responses … in non-melanoma patients” value (non-melanoma tumours [3]) is listed as “no objective responses”.

In the case of `O=C(NC[C@H](O)CO)c1ccncc1Nc1ccc(I)cc1F` [pimasertib], the “Objective responses … in non-melanoma patients” value (non-melanoma tumours [4]) is given as “no objective responses”.
